Results taken from patent US10259810B2, “N-sulfonylated pyrazolo[3,4-b]pyridin-6-carboxamides and method of use” (AbbVie S.à.r.l., priority 2015, dated 2019).

How the values were obtained:
Format in all cases: cell-based
ΔF508-CFTR [1] = target: T1, ΔF508-CFTR (Homo sapiens, UniProt P13569, DEL508-508); assay: CFTR cell surface levels using HRP-tagged ΔF508-CFTR expressing CFBE cells, intrinsic corrector capacity; design: % Activation: concentration or dose not given beside the values; details: HRP-tagged ΔF508-CFTR expressing CFBE41o- cells, compound alone (intrinsic corrector capacity), 20 hours at 33° C.; for EC50: read-out: EC50
T1 construct: host or cells: CFBE41o-, doxycycline-inducible
Summary of the method: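 Read-out: chemiluminescent HRP activity of ECL4-HRP-tagged ΔF508-CFTR at the cell surface, 15 min substrate in dark. Normalized as 100×(sample−DMSO)/(positive control−DMSO).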

CFTR ΔF508 = target: T2, CFTR ΔF508 (Homo sapiens, UniProt P13569, DEL508-508); assay: Chronic TECC assay, primary bronchial epithelial cells of CF patients homozygous for CFTR ΔF508 (corrector, co-corrector and potentiator); details: chronic TECC, AUC = full area under the curve upon forskolin stimulation; for EC50: read-out: EC50 (nM) (AUC**); for % Activity at 3 μM (AUC**): test compound at 3 μM; for % Activity at 1 μM (AUC**): test compound at 1 μM
T2 construct: bronchial epithelial cells isolated from CF patients homozygous for the CFTR ΔF508 mutation; McGill University; Asterand; University of North Carolina hAEC-CF; host or cells: primary human bronchial epithelial cells from CF patients homozygous for ΔF508, differentiated at air-liquid interface
Summary of the method: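 Primary bronchial epithelial cells from ΔF508-homozygous CF patients on collagen IV-coated Transwells were chronically treated with test compound plus corrector and potentiator, which were re-added before recording. Ieq was derived from PD and Rt in NaCl-Ringer, pH 7.4, at 37° C, with apical amiloride and bilateral forskolin, recorded every 2 min over 20 min. Ieq increase was normalized to controls, and EC50 was taken from per-well concentrations.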

ΔF508-CFTR [2] = target: T1, ΔF508-CFTR; assay: CFTR cell surface levels using HRP-tagged ΔF508-CFTR expressing CFBE cells, in the presence of a co-corrector; details: HRP-tagged ΔF508-CFTR CFBE cells, in the presence of 3 μM co-corrector; for EC50: read-out: EC50
Summary of the method: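 Chemiluminescent read-out of surface HRP (15 min, dark) after PBS washes. Activity is normalized as 100×(sample−DMSO)/(3 μM co-corrector alone−DMSO).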

T1 sequence (P13569 with tags, fused parts or gaps DEL508-508): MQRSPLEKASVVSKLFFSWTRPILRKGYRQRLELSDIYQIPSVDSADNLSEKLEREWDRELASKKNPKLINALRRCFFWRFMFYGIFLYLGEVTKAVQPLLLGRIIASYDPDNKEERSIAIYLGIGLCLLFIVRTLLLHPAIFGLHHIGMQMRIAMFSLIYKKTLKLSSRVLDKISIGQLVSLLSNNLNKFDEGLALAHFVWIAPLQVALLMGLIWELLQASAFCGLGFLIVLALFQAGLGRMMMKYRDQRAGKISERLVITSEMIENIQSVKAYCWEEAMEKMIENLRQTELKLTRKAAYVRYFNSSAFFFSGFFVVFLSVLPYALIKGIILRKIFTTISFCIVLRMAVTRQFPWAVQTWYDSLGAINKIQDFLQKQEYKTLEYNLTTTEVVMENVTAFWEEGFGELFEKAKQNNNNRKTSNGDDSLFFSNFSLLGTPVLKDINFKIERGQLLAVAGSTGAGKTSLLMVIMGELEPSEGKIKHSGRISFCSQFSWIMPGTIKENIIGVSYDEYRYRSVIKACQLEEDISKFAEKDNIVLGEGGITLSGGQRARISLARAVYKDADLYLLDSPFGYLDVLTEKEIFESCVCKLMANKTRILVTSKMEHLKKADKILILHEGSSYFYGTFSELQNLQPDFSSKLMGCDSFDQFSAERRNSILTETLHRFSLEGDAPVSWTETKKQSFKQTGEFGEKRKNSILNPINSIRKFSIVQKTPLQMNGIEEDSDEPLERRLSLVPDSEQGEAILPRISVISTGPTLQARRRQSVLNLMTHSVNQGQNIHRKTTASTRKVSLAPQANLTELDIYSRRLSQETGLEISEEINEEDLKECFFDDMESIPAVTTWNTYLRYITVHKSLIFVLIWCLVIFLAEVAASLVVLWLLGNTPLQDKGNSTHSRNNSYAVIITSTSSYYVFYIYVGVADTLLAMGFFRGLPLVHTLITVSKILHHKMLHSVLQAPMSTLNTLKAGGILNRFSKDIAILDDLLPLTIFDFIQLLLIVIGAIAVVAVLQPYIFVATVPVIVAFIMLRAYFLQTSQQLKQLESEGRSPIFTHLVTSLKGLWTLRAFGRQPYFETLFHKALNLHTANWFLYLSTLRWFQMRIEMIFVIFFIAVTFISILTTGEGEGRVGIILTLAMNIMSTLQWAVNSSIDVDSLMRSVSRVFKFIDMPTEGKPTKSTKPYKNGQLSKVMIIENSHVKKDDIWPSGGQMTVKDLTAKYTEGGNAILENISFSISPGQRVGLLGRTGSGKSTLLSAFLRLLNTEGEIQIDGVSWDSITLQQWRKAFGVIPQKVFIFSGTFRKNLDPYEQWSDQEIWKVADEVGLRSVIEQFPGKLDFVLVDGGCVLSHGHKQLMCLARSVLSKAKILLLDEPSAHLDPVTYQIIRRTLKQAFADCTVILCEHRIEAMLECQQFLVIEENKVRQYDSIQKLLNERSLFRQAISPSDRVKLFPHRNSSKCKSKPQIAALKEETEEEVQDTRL
T2 sequence (P13569 with tags, fused parts or gaps DEL508-508): as above

Structure (SMILES)	% Activation (ΔF508-CFTR [1]) [%]	EC50 (ΔF508-CFTR [1]) [nM]	EC50 (CFTR ΔF508) [nM]	% Activity at 3 μM (AUC**) (CFTR ΔF508) [%]	% Activation (ΔF508-CFTR [2]) [%]	EC50 (ΔF508-CFTR [2]) [nM]	% Activity at 1 μM (AUC**) (CFTR ΔF508) [%]
COC1CCN(C2CCN(c3cc(C(=O)NS(=O)(=O)N4CCOCC4)nc4c3c(C3CCC3)nn4-c3ccc(F)cc3)CC2)CC1 [Compound 647, 3-cyclobutyl-1-(4-fluorophenyl)-4-(4-methoxy[1,4'-bipiperidin]-1'-yl)-N-(morpholine-4-sulfonyl)-1H-pyrazolo[3,4-b]pyridine-6-carboxamide]	164.47	216	151	420.0246	337.07	112	
COCCN(CCOC)c1ccc(-c2cc(C(=O)NS(C)(=O)=O)nc3c2c(C2CCC2)nn3-c2ccccc2)cn1 [Compound 246, 4-{6-[bis(2-methoxyethyl)amino]pyridin-3-yl}-3-cyclobutyl-N-(methanesulfonyl)-1-phenyl-1H-pyrazolo[3,4-b]pyridine-6-carboxamide]	112.1	371	61		331.65	77.3	301.36
CNS(=O)(=O)NC(=O)c1cc(N2CCC(N3CCC(OC)CC3)CC2)c2c(C3CCC3)nn(-c3ccc(F)cc3)c2n1 [Compound 629, 3-cyclobutyl-1-(4-fluorophenyl)-4-(4-methoxy[1,4'-bipiperidin]-1'-yl)-N-(methylsulfamoyl)-1H-pyrazolo[3,4-b]pyridine-6-carboxamide]	337.34	517	6.85	153.3918	546.75	267	
CC(C)N1CCC2CN(c3cc(C(=O)NS(=O)(=O)N(C)C)nc4c3c(C3CCC3)nn4-c3ccc(F)cc3)CCC21 (stereo not drawn) [Compound 625, 3-cyclobutyl-N-(dimethylsulfamoyl)-1-(4-fluorophenyl)-4-[1-(propan-2-yl)octahydro-5H-pyrrolo[3,2-c]pyridin-5-yl]-1H-pyrazolo[3,4-b]pyridine-6-carboxamide]	182.2	223			353.87	126	403.3333
COCC1CCN(c2cc(C(=O)NS(=O)(=O)c3cn(C)c(C)n3)nc3c2c(C2CCC2)nn3-c2ccccc2)CC1 [Compound 250, 3-cyclobutyl-N-(1,2-dimethyl-1H-imidazole-4-sulfonyl)-4-[4-(methoxymethyl)piperidin-1-yl]-1-phenyl-1H-pyrazolo[3,4-b]pyridine-6-carboxamide]	232.7	514			440.4	372	331.21
COCCS(=O)(=O)NC(=O)c1cc(N2CCC(CN3CCOCC3)CC2)c2c(C3CCC3)nn(-c3ccc(F)cc3)c2n1 [Compound 447, 3-cyclobutyl-1-(4-fluorophenyl)-N-(2-methoxyethanesulfonyl)-4-{4-[(morpholin-4-yl)methyl]piperidin-1-yl}-1H-pyrazolo[3,4-b]pyridine-6-carboxamide]	330.9	244			543.1	64.7	330
COC1CCN(C2CCN(c3cc(C(=O)NS(N)(=O)=O)nc4c3c(C3CCC3)nn4-c3ccc(F)cc3)CC2)CC1 [Compound 630, 3-cyclobutyl-1-(4-fluorophenyl)-4-(4-methoxy[1,4'-bipiperidin]-1'-yl)-N-sulfamoyl-1H-pyrazolo[3,4-b]pyridine-6-carboxamide]	339.64	739	47.1		593.42	375	125.1944
CN(C)S(=O)(=O)NC(=O)c1cc(N2CCC(N3CCN(C4CC4)CC3)CC2)c2c(C3CCC3)nn(-c3ccccc3)c2n1 [Compound 549, 3-cyclobutyl-4-[4-(4-cyclopropylpiperazin-1-yl)piperidin-1-yl]-N-(dimethylsulfamoyl)-1-phenyl-1H-pyrazolo[3,4-b]pyridine-6-carboxamide]	276.9	233	243		476.35	180	373.3333
